Here are results for 2 compounds from publication PMC6272448, “Synthesis, ^18F-Radiolabelling and Biological Characterization of Novel Fluoroalkylated Triazine Derivatives for in Vivo Imaging of Phosphodiesterase 2A in Brain via Positron Emission Tomography” (Molecules, 2015).

A short description of series [1]: lipophilicity (logD7.4), shake-flask method. It counts as physicochemical. The settings on record: n-octanol/PBS (1:1, v/v), n-octanol / PBS pH 7.4, ambient temperature, fourfold determination. As to the method:
(§1) To estimate the lipophilicity of [^18F]TA3 and [^18F]TA4, the distribution coefficients were determined by partitioning between n-octanol and phosphate buffered saline (PBS, pH 7.4) at ambient temperature using the conventional shake-flask method. […] In vitro stability of each radioligand was investigated in phosphate buffered saline (PBS, pH 7.4), n-octanol and pig plasma after 60 min incubation at 37 °C.
The lipophilicity of [^18F]TA3 or [^18F]TA4 was determined by partitioning between n-octanol and phosphate buffered saline (PBS, pH 7.4) at ambient temperature using the conventional shake-flask method. An aliquot of 10 µL of the formulated solutions of each [^18F]TA3 or [^18F]TA4 with approximately 1 MBq of the radioligand was added to a tube containing 6 mL of the n-octanol/PBS-mixture (1:1, v/v, fourfold determination). The tubes were shaken for 20 min using a mechanical shaker (HS250 basic, IKA Labortechnik GmbH & Co. KG, Staufen, Germany) followed by centrifugation (5000 rpm for 5 min) and separation of the phases. Aliquots of each 1 mL were taken from the organic and the aqueous phase and activity was measured using an automated gamma counter (1480 WIZARD, Fa. Perkin Elmer, Waltham, MA, USA). The distribution coefficient (D) was calculated as [activity (cpm/mL) in n-octanol]/[activity (cpm/mL) in PBS, pH 7.4] specified as the decade logarithm (logD7.4).

The nature of series [2]: in vitro stability in PBS, n-octanol and pig plasma. Conditions: PBS pH 7.4, n-octanol and pig plasma, 60 min at 37 °C; radio-TLC and radio-HPLC. Type of series: in vitro ADME. The procedure:
as §1
In vitro stabilities of [^18F]TA3 or [^18F]TA4 were investigated by incubation of the radioligands in phosphate buffered saline (PBS, pH 7.4), n-octanol and pig plasma at 37 °C for 60 min (~5 MBq of the radioligand added to 500 µL of each medium). Samples were taken at 15, 30 and 60 min after incubation and analyzed by radio-TLC and radio-HPLC (system B).

A short description of series [3]: in vivo metabolism in mice, micellar HPLC (MLC). The settings on record: CD-1 mice, 30 min p.i.; for intact radioligand in brain: brain homogenate; for intact radioligand in plasma: direct injection. From the text:
Therefore we used micellar HPLC (MLC), because this method allows the direct injection of plasma samples without deproteination. MLC was recently investigated by Nakao et al. regarding their suitability for direct plasma metabolite analysis of PET radioligands. As eluent a mixture of an aqueous solution of sodium dodecyl sulphate (SDS), phosphate buffer and 1-propanol was used. According to the published procedure, a gradient mode was applied starting under micellar conditions to completely elute the protein fraction and release the protein bound ^18F-compounds by the SDS micelles. Subsequent increase of the amount of 1-propanol as organic modifier leads to high submicellar conditions resulting in the elution of the intact radioligand and its radio-metabolites.
The radioligands [^18F]TA3 or [^18F]TA4 (~60 MBq in 150 µL isotonic saline) were injected via the tail vein in female CD-1 mice (10–12 weeks old). Brain and blood samples were obtained at 30 min p.i., plasma separated by centrifugation (14,000× g, 1 min), and brain homogenized in ~1 mL isotonic saline on ice (10 strokes of a PTFE plunge at 1000 rpm in a borosilicate glass cylinder; Potter S Homogenizer, B. Braun Melsungen AG, Melsungen, Germany).
For preparation of the MLC injection samples, mouse plasma (20–50 µL, 30 min p.i.) was dissolved in 100–300 µL of 200 mM aqueous SDS and injected directly into the MLC system (500 µL sample loop; column: Reprosil-Pur C18-AQ, 250 × 4.6 mm, particle size: 10 µm; gradient: 0–15 min: 3% 1-PrOH, 15–40 min: 3% → 30% 1-PrOH; 40–49 min: 30% 1-PrOH, 49–50 min: 30% → 3% 1-PrOH; 50–60 min: 3% 1-PrOH/100 mM SDS, 10 mM Na2HPO4; flow: 1 mL/min; ambient temperature). […] Homogenized brain material (100–200 µL, 30 min p.i.) was dissolved in 500 µL of 200 mM aqueous SDS, stirred at 75 °C for 5 min and after cooling to ambient temperature injected into the MLC system.

Consider `COc1ccc2nnc3c(C)nc(-c4cc(OCCC[18F])ccc4F)n3c2n1` [[^18F]TA3], for which, in series [1], the log distribution coefficient (logD) was determined as 3.37 ± 0.14. Also, in series [2], the in vitro stability result is recorded as “stable in all media tested in vitro”. In addition, in series [3], the “intact radioligand in brain” value is listed as 29 % of total activity and the “intact radioligand in plasma” value was 5 % of total activity.

In turn, `COc1ccc2nnc3c(C)nc(-c4cc(OCCCC[18F])ccc4F)n3c2n1` [[^18F]TA4] yielded a logD in series [1] of 2.99 ± 0.15. The in vitro stability result in series [2] is recorded as “stable in all media tested in vitro”. In series [3], the “intact radioligand in brain” value was 4 % of total activity and the “intact radioligand in plasma” value was 5 % of total activity.

What is called logD is the decadic logarithm of the distribution of all forms, ionised or not, between an organic phase and buffer at a given pH. A higher logD goes with a more lipophilic compound.
